Source: patent publication US20140023611A1 (priority 2010, published 2014)
Values joined by “and” are separate entries in the source; they are usually repeats but may differ in a detail not shown here. Equal entries are not always repeated. Structures can show the parent of a compound that is named as a salt.

Key:
human NaP2b (SLC34A2) = biological target: T1, human NaP2b (SLC34A2) (Homo sapiens, UniProt O95436); assay: Inhibition of NaP2b-mediated Pi (33P) uptake in transfected HEK293 cells, human NaP2b; type: cell-based; conditions: read-out: pIC50 range for human NaP2b (converted)
T1 construct: host or cells: HEK293
T1 sequence (O95436 1-690): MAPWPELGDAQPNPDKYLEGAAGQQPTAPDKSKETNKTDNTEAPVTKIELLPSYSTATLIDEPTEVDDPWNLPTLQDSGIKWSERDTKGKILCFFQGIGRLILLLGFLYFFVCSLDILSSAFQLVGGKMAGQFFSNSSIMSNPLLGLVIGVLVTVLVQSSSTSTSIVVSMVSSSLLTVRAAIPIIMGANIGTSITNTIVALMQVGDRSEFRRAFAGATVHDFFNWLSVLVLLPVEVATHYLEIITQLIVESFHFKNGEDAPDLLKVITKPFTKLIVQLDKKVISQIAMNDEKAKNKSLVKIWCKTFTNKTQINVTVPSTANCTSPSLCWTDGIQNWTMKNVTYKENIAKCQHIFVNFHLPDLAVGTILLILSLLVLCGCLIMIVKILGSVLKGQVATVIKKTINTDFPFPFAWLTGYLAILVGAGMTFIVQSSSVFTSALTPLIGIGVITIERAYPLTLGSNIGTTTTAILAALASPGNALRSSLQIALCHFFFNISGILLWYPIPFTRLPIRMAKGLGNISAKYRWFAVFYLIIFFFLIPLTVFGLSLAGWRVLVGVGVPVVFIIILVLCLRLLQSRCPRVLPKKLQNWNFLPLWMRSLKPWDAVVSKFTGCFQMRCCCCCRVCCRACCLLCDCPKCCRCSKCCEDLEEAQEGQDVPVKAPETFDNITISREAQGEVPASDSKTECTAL
In short: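 HEK293 cells transiently transfected with human NaP2b (Thr inserted after residue 37, N39D), endogenous PiT transport pharmacologically silenced. Sodium or choline buffer, pH 7.4, with 100 uM KH2PO4, 33P orthophosphate and compound (0.1 nM–30 uM, twelve concentrations, duplicate). 3-30 min at room temperature, scintillation counting, pIC50 derived.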

[1] = Fecal recovery of orally administered compounds; type: in vivo, Sprague-Dawley rats; conditions: Structure (I) examples, Table 16; rat, oral gavage, feces collected until 48 hr after dosing
In short: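 After oral dosing, feces collected in metabolic cages up to 48 h, lyophilized and ground. Duplicate weighed portions per animal extracted with organic solvent under non-compound-optimized conditions, so recovery may be a minimal estimate.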

[2] = Stability of compounds in simulated intestinal fluid (SIF); type: in vitro ADME; conditions: simulated intestinal fluid (3 mg/mL pancreatin), incubation time 6 hr, relative to t=0
In short: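 Compounds at […] were incubated 3 or 6 hr in USP simulated gastric fluid with 3 mg/mL pepsin or simulated intestinal fluid with 3 mg/mL pancreatin. Remaining compound was quantified by HPLC-UV or HPLC-MS peak area % and reported as percent of the t=0 level in the same medium.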

Row | SMILES | IC50 (human NaP2b (SLC34A2)) | % recovered in feces [1] | % remaining, SIF [2]
1 | CCN(CC)c1ccc(NC(=O)c2cccc(CCCOCCOCCOCCOCCC(=O)O)c2)c(-c2cc(C(=O)NCc3cccc(C(F)(F)F)c3)ccn2)c1 [Example 251, 16-(3-(4-(diethylamino)-2-(4-(3-(trifluoromethyl)benzylcarbamoyl)pyridin-2-yl)phenylcarbamoyl)phenyl)-4,7,10,13-tetraoxahexadecan-1-oic acid] | < 1000 nM | >80% | >80%
2 | CCN(CC)c1ccc(NC(=O)c2cccc(CCCOCCOCCOCCOCCOCCOCCOCCOCCOC)c2)c(-c2cc(C(=O)N[C@H]3CCCc4ccccc43)ccn2)c1 [Example 261, (S)-2-(2-(3-(2,5,8,11,14,17,20,23,26-nonaoxanonacosan-29-yl)benzamido)-5-(diethylamino)phenyl)-N-(1,2,3,4-tetrahydronaphthalen-1-yl)isonicotinamide] | < 1000 nM | <20% | 60-80% and >80%
3 | CCN(CC)c1ccc(NC(=O)c2cccc(CSCCOCCOCCOCCOCCOCCOCCOCCOC)c2)c(-c2cc(C(=O)NCc3cccc(C(F)(F)F)c3)ccn2)c1 [Example 265, 2-(2-(3-(2,5,8,11,14,17,20,23-octaoxa-26-thiaheptacosan-27-yl)benzamido)-5-(diethylamino)phenyl)-N-(3-(trifluoromethyl)benzyl)isonicotinamide] | < 1000 nM | <20% | >80%
4 | CCN(CC)c1ccc(NC(=O)c2cccc(CCCOCCOCCOCCOCCOCCOCCOCCOCCOC)c2)c(-c2cc(C(=O)NCc3cccc(C(F)(F)F)c3)ccn2)c1 [Example 269, 2-(2-(3-(2,5,8,11,14,17,20,23,26-nonaoxanonacosan-29-yl)benzamido)-5-(diethylamino)phenyl)-N-(3-(trifluoromethyl)benzyl)isonicotinamide] | < 1000 nM | <20% | >80%
5 | CCN(CC)c1ccc(NC(=O)c2cccc(CSCCOCCOCCOCCOCCOCCOCCOCCOC)c2)c(-c2cc(C(=O)N[C@H]3CCCc4ccccc43)ccn2)c1 [Example 286, (S)-2-(2-(3-(2,5,8,11,14,17,20,23-octaoxa-26-thiaheptacosan-27-yl)benzamido)-5-(diethylamino)phenyl)-N-(1,2,3,4-tetrahydronaphthalen-1-yl)isonicotinamide] | < 1000 nM | <20% | >80%
6 | CCN(CC)c1ccc(NC(=O)c2cccc(C(=O)N(C)CCN(CCOC)CCOCCOCCOCCOCCOCCOCCOC)c2)c(-c2cc(C(=O)NCc3cccc(C(F)(F)F)c3)ccn2)c1 [Example 335, N^1-(4-(Diethylamino)-2-(4-(3-(trifluoromethyl)benzylcarbamoyl)pyridin-2-yl)phenyl)-N^3-(23-(2-methoxyethyl)-2,5,8,11,14,17,20-heptaoxa-23-azapentacosan-25-yl)-N^3-methylisophthalamide, trifluoroacetate] | 1000 to 7940 nM | >80% | >80%
